Tests used:
[1] = biological target: T1, oxidase-type xanthine oxidoreductase (XO activity) (Rattus norvegicus, UniProt P22985); assay: Prolonged inhibitory effect on tissue and plasma XO activity (pterin-based assay after oral dosing); type: in vivo, Sprague-Dawley male rats; conditions: about 27 hours after administration
T1 construct: frozen tissues were homogenized with potassium phosphate buffer; from tissue; host or cells: rat liver, kidney, vessel homogenate supernatants and plasma (ex vivo after oral dosing)
Text: (§1) For “xanthine oxidase” in the present invention, as far as this example, oxidative reaction catalyzing activities which are brought by oxidase-type xanthine oxidoreductase solely and by both oxidase-type and dehydrogenase-type xanthine oxidoreductase are distinguished. The former is “XO activity” and the latter is “XOR activity”. In “tissue XO activity”, “plasma XO activity”, “tissue XOR activity inhibition”, “tissue XOR activity inhibition” and the like, “XO activity” and “XOR activity” have the same meanings as defined above. The tissue includes liver, kidney and vessel. In addition, percentage of XO activity inhibition and that of […] in same sample are thought to be similar, according to the results below.
(§2) The inhibitory effect of tissue XO activity, tissue XOR activity and plasma XO activity was confirmed for 2-[4-(2,2-dimethylpropoxy)-3-(1H-1,2,3,4-tetrazol-1-yl)phenyl]-4-methyl-1,3-thiazole-5-carboxylic acid. A test compound suspended in a 0.5% methylcellulose solution was forcedly administered to 7 to 9 week-old Sprague-Dawley male rats (Japan Charles River Co.) by oral gavage administration using a feeding needle. The blood was collected from the abdominal vein and tissue was collected at 24 or 27 hours after administration. Plasma sample was prepared by centrifugation.
(§3) The tissue XO activity, the tissue XOR activity and the plasma XO activity were measured by the pterin-based assay which utilizes the reaction that pterin is oxidized by each type of xanthine oxidoreductase to produce fluorescent isoxanthopterin. In brief, frozen tissues were homogenized with potassium phosphate buffer, pH 7.4, containing 1 mM ethylenediaminetetraacetic acid (EDTA) and protease inhibitors to prepare tissue concentration as follow (liver: 25 mg/mL, kidney: 25 mg/mL, vessel: 30 mg/mL). Then the homogenates were centrifuged 12,000 rpm for 15 min at 4° C. When measured XO activity, the supernatant of tissue and plasma were respectively co-incubated with 50 μM pterin solution at 37° C. When measured XOR activity, the supernatant of tissue homogenate was co-incubated with 50 μM pterin and 50 μM methylene blue solution at 37° C. As a control, oxidase-type xanthine oxidoreductase (from buttermilk, manufactured by Calbiochem Novabiochem Corp.) was also incubated with pterin solution in the same manner. XO activity and XOR activity of the samples were determined from fluorescence intensity which normalized by the intensity value of control and protein concentration.
(§4) The percentage of XO activity inhibition and XOR activity inhibition were determined by the following expression: Percentage of XO or XOR activity inhibition (%)=(XO or XOR activity of the control animal−XO or XOR activity of the test compound-administered animal)×100/XO or XOR activity of the control animal.

[2] = test system: level of uric acid in the plasma; assay: Hypouricemic effect (oxonic acid-induced hyperuricemic beagle dogs); type: in vivo, beagle dog; conditions: oral, 10 mg/kg, 8 hours after administration
Experimental: The hypouricemic effect of 2-[4-(2,2-dimethylpropoxy)-3-(1H-1,2,3,4-tetrazol-1-yl)phenyl]-4-methyl-1,3-thiazole-5-carboxylic acid in oxonic acid-induced hyperuricmic beagle dog was confirmed. A test compound suspended in a 0.5% methylcellulose solution was administered to beagle dog (Kitayama labes) by oral gavage administration. Potassium oxonate (50 mg/kg) was subcutaneously administrated before and 4 hours after compound administration. After the blood was collected from the cephalic vein at 8 hours after administration, the plasma was separated. The level of uric acid in the plasma sample was measured by LC-MS/MS method and the percentage of hypouricemic effect was determined by the following expression: Percentage of hypouricemic effect (%)=(Level of uric acid of the control animal−Level of uric acid of the test compound-administered animal)×100/Level of uric acid of the control animal.

[3] = biological target: T2, oxidase-type and dehydrogenase-type xanthine oxidoreductase (XOR activity) (Rattus norvegicus, UniProt P22985); assay: Prolonged inhibitory effect on tissue XOR activity (pterin-based assay with methylene blue after oral dosing); type: in vivo, Sprague-Dawley male rats; conditions: for XOR activity inhibition compared to the control animal: 27 hours after drug administration; for XOR inhibitory activity, % of inhibition (vs. vehicle): 24 hours after administration
T2 construct: frozen tissues were homogenized with potassium phosphate buffer; from tissue; host or cells: rat liver, kidney, vessel homogenate supernatants and plasma (ex vivo after oral dosing)
Text: as §1, §2, §3, §4

[4] = test system: level of uric acid in the blood; assay: Prolonged hypouricemic effect (normal rats), 24 hours after administration; type: in vivo, Sprague-Dawley male rats; conditions: oral
Experimental: 2-[4-(2,2-dimethylpropoxy)-3-(1H-1,2,3,4-tetrazol-1-yl)phenyl]-4-methyl-1,3-thiazole-5-carboxylic acid was administered to Sprague-Dawley male rats in the same manner as in Reference Example 4. After the blood was collected from the tail vein 24 hours after administration, the plasma was separated. The level of uric acid in the blood was measured by an uricase method using an absorption spectrometer and a uric acid determination kit (L type Wako UA F: Wako Pure Chemical Industries, Ltd.). The percentage of hypouricemic effect was determined by the following expression: Percentage of hypouricemic effect (%)=(Level of uric acid of the control animal−Level of uric acid of the test compound-administered animal)×100/Level of uric acid of the control animal.

[5] = biological target: T3, oxidase-type xanthine oxidoreductase (from buttermilk) (Bos taurus, UniProt P80457); assay: Measurement of xanthine oxidase inhibitory activity; type: biochemical; conditions: xanthine substrate, absorbance 290 nm
T3 construct: purchased Calbiochem Novabiochem Corp; host or cells: natural source: buttermilk
Experimental: After dissolving 2-[4-(2,2-dimethylpropoxy)-3-(1H-1,2,3,4-tetrazol-1-yl)phenyl]-4-methyl-1,3-thiazole-5-carboxylic acid in DMSO (produced by Sigma Corporation) so that the concentration is 20 mM, the solution was used by adjusting the concentration to a desired value for the purpose during use.
The evaluation of the xanthine oxidase inhibitory activity of 2-[4-(2,2-dimethylpropoxy)-3-(1H-1,2,3,4-tetrazol-1-yl)phenyl]-4-methyl-1,3-thiazole-5-carboxylic acid was conducted by the method described in the refference (Method Enzymatic Analysis, 1, 521-522, 1974) with partial modification. This evaluation was carried out by measuring oxidase-type xanthine oxidoreductase acrivity. […] After mixing the plate, absorbance at 290 nm was measured by a microplate reader SPECTRA MAX Plus 384 (manufactured by Molecular Devices, LLC). […] Immediately after mixing, the change of absorbance at 290 nm was measured for 5 minutes. The enzyme activity of DMSO solution without test compound was used as 100% control, and the inhibitory rate of the test compound was calculated. Fifty percent inhibitory concentration of the test compound on the oxidase-type xanthine oxidoreductase activity was calculated by fitting to the dose-response curve.

[6] = test system: level of uric acid in the blood; assay: Hypouricemic effect (normal rats), 2 hours after administration; type: in vivo, Sprague-Dawley male rats; conditions: oral
Experimental: The hypouricemic effect was confirmed for 2-[4-(2,2-dimethylpropoxy)-3-(1H-1,2,3,4-tetrazol-1-yl)phenyl]-4-methyl-1,3-thiazole-5-carboxylic acid. A test compound suspended in a 0.5% methylcellulose solution was forcibly administered to 8 to 9 week-old Sprague-Dawley male rats (Japan Charles River Co.) by oral gavage administration using a feeding needle. After the blood was collected from the tail vein at 2 hours after administration, the plasma was separated. The level of uric acid in the blood sample was measured by uricase method using an absorption spectrometer as well as a uric acid determination kit (L type Wako UA F: Wako Pure Chemical Industries, Ltd.). The percentage of hypouricemic effect was determined by the following expression: Percentage of hypouricemic effect (%)=(Level of uric acid of the control animal−Level of uric acid of the test compound-administered animal)×100/Level of uric acid of the control animal.

T2 sequence (P22985 whole entry): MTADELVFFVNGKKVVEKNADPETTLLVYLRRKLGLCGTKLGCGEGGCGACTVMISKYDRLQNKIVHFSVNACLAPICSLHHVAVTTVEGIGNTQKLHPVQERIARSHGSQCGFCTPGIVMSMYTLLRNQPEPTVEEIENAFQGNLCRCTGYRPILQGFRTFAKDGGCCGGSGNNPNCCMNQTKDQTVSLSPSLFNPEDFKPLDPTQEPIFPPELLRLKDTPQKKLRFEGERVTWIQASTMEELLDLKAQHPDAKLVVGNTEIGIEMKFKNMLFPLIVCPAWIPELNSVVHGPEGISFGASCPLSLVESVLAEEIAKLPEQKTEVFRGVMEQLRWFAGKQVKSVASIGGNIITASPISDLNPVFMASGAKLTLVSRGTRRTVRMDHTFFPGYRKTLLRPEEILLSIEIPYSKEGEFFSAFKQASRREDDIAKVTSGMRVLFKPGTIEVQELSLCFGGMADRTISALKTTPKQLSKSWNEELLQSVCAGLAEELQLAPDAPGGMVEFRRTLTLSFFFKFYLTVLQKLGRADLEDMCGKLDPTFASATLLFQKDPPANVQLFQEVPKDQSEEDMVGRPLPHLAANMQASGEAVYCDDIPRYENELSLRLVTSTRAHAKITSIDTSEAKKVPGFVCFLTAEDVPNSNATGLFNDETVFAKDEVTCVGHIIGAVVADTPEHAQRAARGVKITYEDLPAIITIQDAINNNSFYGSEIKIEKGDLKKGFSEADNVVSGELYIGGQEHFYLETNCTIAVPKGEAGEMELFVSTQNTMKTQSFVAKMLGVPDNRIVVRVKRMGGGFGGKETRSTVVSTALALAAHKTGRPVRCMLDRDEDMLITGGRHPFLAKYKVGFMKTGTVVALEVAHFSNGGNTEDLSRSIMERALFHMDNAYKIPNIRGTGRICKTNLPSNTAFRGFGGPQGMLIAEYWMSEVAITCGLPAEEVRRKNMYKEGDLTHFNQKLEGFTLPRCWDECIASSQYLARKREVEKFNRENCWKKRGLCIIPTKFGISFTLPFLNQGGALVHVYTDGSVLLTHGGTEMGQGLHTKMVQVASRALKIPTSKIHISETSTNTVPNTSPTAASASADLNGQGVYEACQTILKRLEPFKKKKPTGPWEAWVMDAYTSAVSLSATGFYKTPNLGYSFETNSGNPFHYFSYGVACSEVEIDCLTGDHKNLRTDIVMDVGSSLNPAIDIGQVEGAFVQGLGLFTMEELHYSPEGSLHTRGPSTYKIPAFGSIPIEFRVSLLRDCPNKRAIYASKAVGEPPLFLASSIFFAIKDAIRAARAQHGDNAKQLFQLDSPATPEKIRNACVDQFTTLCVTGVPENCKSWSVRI
T1 sequence (P22985 whole entry): as above
T3 sequence (P80457 whole entry): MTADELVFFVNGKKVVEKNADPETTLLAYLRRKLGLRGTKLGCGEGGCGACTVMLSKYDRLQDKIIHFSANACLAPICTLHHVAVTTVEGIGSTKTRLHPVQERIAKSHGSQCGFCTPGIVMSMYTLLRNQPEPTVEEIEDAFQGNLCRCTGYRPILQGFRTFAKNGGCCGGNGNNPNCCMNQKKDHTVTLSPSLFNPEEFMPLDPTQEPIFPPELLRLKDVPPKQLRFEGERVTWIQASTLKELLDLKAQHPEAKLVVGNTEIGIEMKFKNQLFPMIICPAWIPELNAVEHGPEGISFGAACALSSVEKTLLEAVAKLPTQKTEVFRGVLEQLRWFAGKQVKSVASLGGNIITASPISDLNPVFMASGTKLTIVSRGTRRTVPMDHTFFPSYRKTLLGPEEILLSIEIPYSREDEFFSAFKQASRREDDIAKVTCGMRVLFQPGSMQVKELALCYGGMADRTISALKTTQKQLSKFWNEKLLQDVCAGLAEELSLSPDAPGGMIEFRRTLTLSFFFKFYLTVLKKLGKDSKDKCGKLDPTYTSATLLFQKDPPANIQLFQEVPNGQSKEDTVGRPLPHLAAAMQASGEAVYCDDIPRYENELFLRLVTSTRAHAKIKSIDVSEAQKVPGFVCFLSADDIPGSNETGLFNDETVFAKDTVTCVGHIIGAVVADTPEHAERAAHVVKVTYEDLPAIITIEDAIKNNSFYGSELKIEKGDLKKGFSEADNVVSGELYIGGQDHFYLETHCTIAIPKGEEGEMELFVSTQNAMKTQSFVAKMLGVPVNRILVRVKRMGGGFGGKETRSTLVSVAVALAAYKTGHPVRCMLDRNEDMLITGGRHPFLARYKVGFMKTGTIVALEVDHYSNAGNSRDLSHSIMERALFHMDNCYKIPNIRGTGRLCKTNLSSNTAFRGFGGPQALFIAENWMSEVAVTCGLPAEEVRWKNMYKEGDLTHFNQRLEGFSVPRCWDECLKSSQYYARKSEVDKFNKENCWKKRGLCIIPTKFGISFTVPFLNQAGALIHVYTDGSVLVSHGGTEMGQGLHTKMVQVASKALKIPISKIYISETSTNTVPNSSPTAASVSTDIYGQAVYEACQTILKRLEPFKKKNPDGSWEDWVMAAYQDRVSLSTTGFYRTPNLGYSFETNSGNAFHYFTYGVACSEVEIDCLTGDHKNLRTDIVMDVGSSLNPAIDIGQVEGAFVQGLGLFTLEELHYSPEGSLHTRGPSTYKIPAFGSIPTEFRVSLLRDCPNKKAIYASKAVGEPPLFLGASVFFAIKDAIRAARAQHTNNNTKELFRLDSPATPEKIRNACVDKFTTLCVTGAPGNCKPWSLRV

SMILES: Cc1nc(-c2ccc(OCC(C)(C)C)c(-n3cnnn3)c2)sc1C(=O)O [2-[4-(2,2-dimethylpropoxy)-3-(1H-1,2,3,4-tetrazol-1-yl)phenyl]-4-methyl-1,3-thiazole-5-carboxylic acid]
- XO inhibitory activity, % of inhibition (vs. vehicle) ([1]; rat kidney, 1 mg/kg oral): ≧60%
- XO inhibitory activity, % of inhibition (vs. vehicle) ([1]; rat kidney, 10 mg/kg oral, 10 mg/kg): ≧70%
- XO inhibitory activity, % of inhibition (vs. vehicle) ([1]; rat kidney, 10 mg/kg oral, listed as present compound, 10 mg/kg): ≥ 70%
- XO inhibitory activity, % of inhibition (vs. vehicle) ([1]; rat liver, 1 mg/kg oral): ≧80%
- XO inhibitory activity, % of inhibition (vs. vehicle) ([1]; rat plasma, 1 mg/kg oral, 1 mg/kg): ≧25%
- XO inhibitory activity, % of inhibition (vs. vehicle) ([1]; rat plasma, 1 mg/kg oral, listed as present compound, 1 mg/kg): ≥ 25%
- XO inhibitory activity, % of inhibition (vs. vehicle) ([1]; rat plasma, 10 mg/kg oral, 10 mg/kg): ≧40%
- XO inhibitory activity, % of inhibition (vs. vehicle) ([1]; rat plasma, 10 mg/kg oral, listed as present compound, 10 mg/kg): ≥ 40%
- Percentage of hypouricemic effect [2]: ≥ 80%
- XOR activity inhibition compared to the control animal ([3]; rat kidney, 1 mg/kg oral): ≥ 60%
- XOR inhibitory activity, % of inhibition (vs. vehicle) ([3]; rat liver, 1 mg/kg oral, 1 mg/kg): ≧80%
- XOR inhibitory activity, % of inhibition (vs. vehicle) ([3]; rat liver, 1 mg/kg oral, listed as present compound, 1 mg/kg): ≥ 80%
- XOR activity inhibition compared to the control animal ([3]; rat liver, 1 mg/kg oral): ≥ 80%
- XOR inhibitory activity, % of inhibition (vs. vehicle) ([3]; rat vessel, 1 mg/kg oral, 1 mg/kg): ≧30%
- XOR inhibitory activity, % of inhibition (vs. vehicle) ([3]; rat vessel, 1 mg/kg oral, listed as present compound, 1 mg/kg): ≥ 30%
- XOR inhibitory activity, % of inhibition (vs. vehicle) ([3]; rat vessel, 10 mg/kg oral, 10 mg/kg): ≧50%
- XOR inhibitory activity, % of inhibition (vs. vehicle) ([3]; rat vessel, 10 mg/kg oral, listed as present compound, 10 mg/kg): ≥ 50%
- Percentage of hypouricemic effect ([4]; 3 mg/kg): ≥ 40%
- Percentage of hypouricemic effect ([4]; 10 mg/kg): ≥ 50%
- IC50 [5]: 1 to 5 nM
- Percentage of hypouricemic effect ([6]; 1 mg/kg): ≥ 50%
- Percentage of hypouricemic effect ([6]; 10 mg/kg): ≥ 50%
